The test system of data set [1] is Blumeria graminis f.sp. hordei. Kind of data set: Blumeria graminis test (barley)/protective. The settings on record: 168 h, 1000 ppm active substance, protective, evaluation 7 days after inoculation, read-out: degree of effectiveness. In kind it is in vivo. How it is done: Blumeria graminis Test (Barley)/Protective
(§1) To prepare a suitable active substance composition, 1 part by weight of active substance is mixed with the given amounts of solvent and emulsifier and the concentrate is diluted to the desired concentration using water.
For the testing of protective effectiveness, young plants are sprayed with the active substance composition in the application rate given.
After the spray coating has been dried on, the plants are dusted with spores of Blumeria graminis f.sp. hordei.
The plants are placed in a greenhouse at a temperature of approximately 20° C. and a relative humidity of approximately 80%, in order to encourage the development of mildew pustules.
Evaluation is carried out 7 days after the inoculation. In this connection, 0% means a degree of effectiveness corresponding to that of the control, while a degree of effectiveness of 100% means that no infestation is observed.

For the next data set, the system named is Pyrenophora teres. Kind of data set: Pyrenophora teres test (barley)/protective. It counts as in vivo. The conditions noted are these: 500 ppm active substance, protective, evaluation 7-9 days after inoculation, read-out: degree of effectiveness. On the procedure: Pyrenophora teres Test (Barley)/Protective
as §1
For the testing of protective effectiveness, young barley plants are sprayed with the active substance composition in the application rate given. 1 day after the treatment, the plants are inoculated with an aqueous suspension of the spores of Pyrenophora teres and then remain at 100% relative humidity and 20° C. for 48 h. Subsequently, the plants are placed in a greenhouse at 80% relative humidity and a temperature of 20° C.
Evaluation is carried out 7-9 days after the inoculation. In this connection, 0% means a degree of effectiveness corresponding to that of the control, while a degree of effectiveness of 100% means that no infestation is observed.

In another data set the test system is Sphaerotheca fuliginea. Kind of data set: Sphaerotheca test (cucumber)/protective. In kind it is in vivo. The conditions noted are these: Podosphaera fuliginea, 168 h, 100 ppm active substance, protective, evaluation 7 days after inoculation, read-out: degree of effectiveness. How it is done: Sphaerotheca Test (Cucumber)/Protective [table] To prepare a suitable active substance composition, 1 part by weight of active substance is mixed with the given amounts of solvents and emulsifier and the concentrate is diluted to the desired concentration using water. For the testing of protective effectiveness, young plants are sprayed with the active substance composition in the application rate given. After the spray coating has been dried on, the plants are inoculated with an aqueous suspension of spores of Sphaerotheca fuliginea. The plants are then placed in a greenhouse at approximately 23° C. and a relative humidity of approximately 70%. Evaluation is carried out 7 days after the inoculation. In this connection, 0% means a degree of effectiveness corresponding to that of the control, while a degree of effectiveness of 100% means that no infestation is observed.

In data set [2] the test system is Puccinia recondita var. tritici. Briefly: Puccinia test (wheat)/protective. In kind it is in vivo. The conditions noted are these: 240 h, 1000 ppm active substance, protective, evaluation 10 days after inoculation, read-out: degree of effectiveness. How it is done:
Puccinia Test (Wheat)/Protective
as §1
For the testing of protective effectiveness, young plants are sprayed with the active substance composition in the application rate given. After the spray coating has been dried on, the plants are sprayed with a suspension of the conidia of Puccinia recondita var. tritici. The plants remain in an incubation chamber at 20° C. and 100% relative humidity for 48 hours.
The plants are then placed in a greenhouse at a temperature of approximately 20° C. and a relative humidity of 80%, in order to encourage the development of rust pustules.
Evaluation is carried out 10 days after the inoculation. In this connection, 0% means a degree of effectiveness corresponding to that of the control, while a degree of effectiveness of 100% means that no infestation is observed.

A further data set has as its system Uromyces appendiculatus. Kind of data set: Uromyces test (beans)/protective. The conditions noted are these: 240 h, 100 ppm active substance, protective, evaluation 10 days after inoculation, read-out: degree of effectiveness. In kind it is in vivo. On the procedure:
Uromyces Test (Beans)/Protective [table] To prepare a suitable active substance composition, 1 part by weight of active substance is mixed with the given amounts of solvents and emulsifier and the concentrate is diluted to the desired concentration using water. For the testing of protective effectiveness, young plants are sprayed with the active substance composition in the application rate given. After the spray coating has been dried on, the plants are inoculated with an aqueous suspension of the spores of the bean rust pathogen Uromyces appendiculatus and then remain in an incubation chamber at approximately 20° C. and 100% relative humidity for 1 day. The plants are then placed in a greenhouse at approximately 21° C. and a relative humidity of approximately 90%. Evaluation is carried out 10 days after the inoculation. In this connection, 0% means a degree of effectiveness corresponding to that of the control, while a degree of effectiveness of 100% means that no infestation is observed.

A further data set relates to Alternaria solani. Kind of data set: Alternaria test (tomato)/protective. In kind it is in vivo. The settings on record: 168 h, 500 ppm active substance, protective, evaluation 7 days after inoculation, read-out: degree of effectiveness. On the procedure:
Alternaria Test (Tomato)/Protective [table] To prepare a suitable active substance composition, 1 part by weight of active substance is mixed with the given amounts of solvent and emulsifier and the concentrate is diluted to the desired concentration using water. For the testing of protective effectiveness, young tomato plants are sprayed with the active substance composition in the application rate given. 1 day after the treatment, the plants are inoculated with a suspension of the spores of Alternaria solani and then stand at 100% relative humidity and 20° C. for 24 h. Subsequently, the plants stand at 96% relative humidity and a temperature of 20° C. Evaluation is carried out 7 days after the inoculation. In this connection, 0% means a degree of effectiveness corresponding to that of the control, while a degree of effectiveness of 100% means that no infestation is observed.

Where two headings read alike, the source gives them in different places.

As to `Cc1cc(Oc2nc(C3(C)CC3)ns2)c(C)cc1N` [2,5-Dimethyl-4-{[3-(1-methylcyclopropyl)-1,2,4-thiadiazol-5-yl]oxy}aniline], the logP (as a rule, a log measure of how a compound divides between an organic and an aqueous phase) in “physchem” (pH 2.3) came to 3.08.

For the compound `Cc1cc(Oc2nc(C3(Cl)CC3)ns2)c(C)cc1/N=C/N1CCCCC1` [Compound 13, 4-{[3-(1-Chlorocyclopropyl)-1,2,4-thiadiazol-5-yl]oxy}-2,5-dimethyl-N-[(1E)-piperidin-1-yl-methylidene]aniline], the pest or weed control at 1000 ppm in data set [1] and in data set [2] was ≥ 70% each time. In the data set on Pyrenophora teres, the pest or weed control at 500 ppm was ≥ 70%. The pest or weed control at 100 ppm in the data set on Sphaerotheca fuliginea was ≥ 70%. In the data set “physchem” (pH 2.3), the lipophilicity (logP) stood at 1.76.

`Cc1cc(Oc2nc(C3CC3C)ns2)c(C)cc1/N=C/N1CCCCC1` (centres unmarked) [Compound 16, 2,5-Dimethyl-4-{[3-(2-methylcyclopropyl)-1,2,4-thiadiazol-5-yl]oxy}-N-[(1E)-piperidin-1-ylmethylidene]aniline]: the pest or weed control at 100 ppm in the data set on Uromyces appendiculatus and in the data set with Sphaerotheca fuliginea was ≥ 70% each time. Further, the pest or weed control at 1000 ppm in data set [1] and in data set [2] was ≥ 70% in each case. The pest or weed control at 500 ppm with Pyrenophora teres and with Alternaria solani was ≥ 70% each time. For the same compound, the logP in the data set “physchem” (pH 2.3) was 1.78.

In the case of `Cc1cc(Oc2nc(C3(Cl)CC3)ns2)c(C)cc1N=CN(C)C(C)C` [Compound 18, N′-(4-{[3-(1-Chlorocyclopropyl)-1,2,4-thiadiazol-5-yl]oxy}-2,5-dimethylphenyl)-N-methyl-N-(1-methylethyl)imidoformamide], the pest or weed control at 100 ppm in the data set with Uromyces appendiculatus and with Sphaerotheca fuliginea was ≥ 70% in each case. The pest or weed control at 1000 ppm in data set [1] and in data set [2] was ≥ 70% throughout. The pest or weed control at 500 ppm with Pyrenophora teres and in the data set on Alternaria solani was ≥ 70% each time. This compound also registered a lipophilicity (logP) in the data set “physchem” (pH 2.3) of 2.01.

For `Cc1cc(Oc2nc(C3(Cl)CC3)ns2)c(C)cc1N=CN(C)C` [Compound 19, N′-(4-{[3-(1-Chlorocyclopropyl)-1,2,4-thiadiazol-5-yl]oxy}-2,5-dimethylphenyl)-N,N-dimethylimidoformamide], the pest or weed control at 100 ppm in the data set with Uromyces appendiculatus and in the data set with Sphaerotheca fuliginea was ≥ 70% each time. Further, the pest or weed control at 1000 ppm in data set [1] and in data set [2] was ≥ 70% in each case. Besides, the pest or weed control at 500 ppm in the data set with Pyrenophora teres and in the data set on Alternaria solani was ≥ 70% each time. In addition, in the data set “physchem” (pH 2.3), the lipophilicity (logP) turned out to be 1.52.

Turning to `Cc1cc(Oc2nc(C3CC3C)ns2)c(C)cc1N=CN(C)C` (centres unmarked) [Compound 20, N′-(2,5-Dimethyl-4-{[3-(2-methylcyclopropyl)-1,2,4-thiadiazol-5-yl]oxy}phenyl)-N,N-di-methylimidoformamide], the pest or weed control at 100 ppm in the data set on Uromyces appendiculatus and in the data set with Sphaerotheca fuliginea was ≥ 70% in each case. In addition, the pest or weed control at 1000 ppm in data set [1] and in data set [2] was ≥ 70% throughout. Further, the pest or weed control at 500 ppm in the data set with Pyrenophora teres and in the data set on Alternaria solani was ≥ 70% throughout. Besides, the log partition coefficient (logP) in the data set “physchem” (pH 2.3) stood at 1.62.

On to `CCN(C)C=Nc1cc(C)c(Oc2nc(C3(C)CC3)cs2)cc1C` [Compound 22, N′-(2,5-Dimethyl-4-{[4-(1-methylcyclopropyl)-1,3-thiazol-2-yl]oxy}phenyl)-N-ethyl-N-methylimidoformamide], for which the pest or weed control at 1000 ppm in data set [1] and in data set [2] was ≥ 70% each time. Also, the pest or weed control at 500 ppm in the data set with Alternaria solani is ≥ 70%. The logP in the data set “physchem” is 4.96; in “physchem” (pH 2.3), 1.86.

With `Cc1cc(Oc2nc(C3(C)CC3(Cl)Cl)ns2)c(C)cc1/N=C/N1CCCCC1` (centres unmarked) [Compound 26, 4-{[3-(2,2-Dichloro-1-methylcyclopropyl)-1,2,4-thiadiazol-5-yl]oxy}-2,5-dimethyl-N-[(1E)-piperidin-1-ylmethylidene]aniline], the pest or weed control at 100 ppm in the data set with Uromyces appendiculatus and with Sphaerotheca fuliginea was ≥ 70% each time. Besides, the pest or weed control at 500 ppm in the data set on Pyrenophora teres and with Alternaria solani was ≥ 70% in each case. This compound also had a log partition coefficient (logP) in “physchem” (pH 2.3) of 2.08.

As for `CCC1(c2nsc(Oc3cc(C)c(/N=C/N4CCCCC4)cc3C)n2)C(C)C1(Cl)Cl` (centres unmarked) [Compound 28, 4-{[3-(2,2-Dichloro-1-ethyl-3-methylcyclopropyl)-1,2,4-thiadiazol-5-yl]oxy}-2,5-dimethyl-N-[(1E)-piperidin-1-ylmethylidene]aniline], the pest or weed control at 100 ppm in the data set with Uromyces appendiculatus and with Sphaerotheca fuliginea was ≥ 70% each time. Moreover, the pest or weed control at 500 ppm in the data set on Pyrenophora teres is ≥ 70%. In “physchem” (pH 2.3), this compound registered a logP of 2.35.

With `Cc1cc(Oc2nc(C3(C)CC3)ns2)c(C)cc1/N=C/N1CCC1` [Compound 31, N-[(1E)-Azetidin-1-ylmethylidene]-2,5-dimethyl-4-{[3-(1-methylcyclopropyl)-1,2,4-thiadiazol-5-yl]oxy}aniline], the pest or weed control at 1000 ppm in data set [1] and in data set [2] was ≥ 70% in each case. The log partition coefficient (logP) in the data set “physchem” (pH 2.3) was 1.6.

`Cc1cc(Oc2nc(C3CC3C)ns2)c(C)cc1/N=C/N1CCC1` (centres unmarked) [Compound 32, N-[(1E)-Azetidin-1-ylmethylidene]-2,5-dimethyl-4-{[3-(2-methylcyclopropyl)-1,2,4-thiadiazol-5-yl]oxy}aniline] displayed a lipophilicity (logP) in the data set “physchem” (pH 2.3) of 1.96.

As for `CCN(C)C=Nc1cc(Cl)c(Oc2nc(C3(Cl)CC3)ns2)cc1C` [Compound 33, N′-(5-Chloro-4-{[3-(1-chlorocyclopropyl)-1,2,4-thiadiazol-5-yl]oxy}-2-methylphenyl)-N-ethyl-N-methylimidoformamide], the pest or weed control at 500 ppm in the data set on Pyrenophora teres and in the data set with Alternaria solani was ≥ 70% each time. The pest or weed control at 100 ppm in the data set on Sphaerotheca fuliginea was ≥ 70%. This compound also displayed a logP in the data set “physchem” (pH 2.3) of 1.72.

Regarding `Cc1cc(Oc2nc(C3(Cl)CC3)ns2)c(Cl)cc1/N=C/N1CCCCC1` [Compound 34, 5-Chloro-4-{[3-(1-chlorocyclopropyl)-1,2,4-thiadiazol-5-yl]oxy}-2-methyl-N-[(1E)-piperidin-1-ylmethylidene]aniline], the pest or weed control at 500 ppm with Pyrenophora teres was ≥ 70%. Besides, in the data set on Sphaerotheca fuliginea, the pest or weed control at 100 ppm is ≥ 70%. Besides, the logP in “physchem” (pH 2.3) is 1.98.
